Source: US9815851B2, “Pyrrolo carboxamides as modulators of orphan nuclear receptor RAR-related orphan receptor-gamma (RORγ, NR1F3) activity and for the treatment of chronic inflammatory and autoimmune diseases” (PHENEX PHARMACEUTICALS AG, priority 2011, dated 2017)
Where two headings read alike, the source gives them in different places.

Assays:
RORγ = target: T1, RORγ (UniProt P51449); assay: RORγ Gal4 Reporter Gene Assay in 293T cells (firefly and renilla luciferase); assay type: cell-based, human
T1 sequence (P51449 1-518): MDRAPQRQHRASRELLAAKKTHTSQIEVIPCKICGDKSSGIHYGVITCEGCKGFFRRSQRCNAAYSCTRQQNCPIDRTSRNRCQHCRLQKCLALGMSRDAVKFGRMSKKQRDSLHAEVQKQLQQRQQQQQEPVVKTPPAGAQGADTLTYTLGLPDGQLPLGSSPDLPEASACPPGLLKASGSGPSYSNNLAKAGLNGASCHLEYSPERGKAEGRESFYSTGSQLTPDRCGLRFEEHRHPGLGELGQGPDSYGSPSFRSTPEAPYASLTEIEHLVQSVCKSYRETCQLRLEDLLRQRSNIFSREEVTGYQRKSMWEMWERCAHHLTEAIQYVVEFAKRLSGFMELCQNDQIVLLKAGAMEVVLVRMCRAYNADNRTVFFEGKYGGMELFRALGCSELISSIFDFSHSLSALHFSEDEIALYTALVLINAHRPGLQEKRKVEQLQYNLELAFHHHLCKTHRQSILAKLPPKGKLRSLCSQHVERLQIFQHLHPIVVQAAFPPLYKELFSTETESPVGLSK

[1] = target: T2, RORγ ligand binding domain (LBD) (Homo sapiens, UniProt P51449); assay: TR-FRET Activity Assay (ligand sensing, RORγ-LBD / coactivator peptide interaction, LANCE); assay type: biochemical
T2 construct: made in house; host or cells: E. coli BL-21 (BL3), vector pDEST15
T2 sequence (P51449 269-508 limits assumed): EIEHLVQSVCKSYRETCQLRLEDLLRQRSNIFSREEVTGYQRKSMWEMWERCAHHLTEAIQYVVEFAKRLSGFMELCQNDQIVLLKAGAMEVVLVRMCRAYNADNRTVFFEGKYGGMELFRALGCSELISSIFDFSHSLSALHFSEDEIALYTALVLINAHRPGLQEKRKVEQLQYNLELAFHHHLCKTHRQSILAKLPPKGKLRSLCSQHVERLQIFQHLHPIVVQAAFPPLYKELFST

[2] = second value of the cell, Gal4 reporter gene assay in 293T cells, firefly luciferase
[3] = third value of the cell, Gal4 reporter gene assay in 293T cells, renilla normalised luciferase
[4] = first value of the cell FRET/FF/REN, TR-FRET activity assay, read-out: pIC50 (FRET) (converted)

pIC50 (FF) (RORγ; [2]) | pIC50 (REN) (RORγ; [3]) | IC50 [1, 4] [nM] | SMILES | pIC50 (FF) (RORγ) | pIC50 (REN) (RORγ) | IC50 [1] [nM]
6.4 | 6.1 | 5010 | Cc1c(C(=O)NCC(C)(C)O)cc(-c2cc(C(C)(C)C)cc(C(=O)NC(C)(C)C)c2Cl)n1CC1CCCCC1 [17/367] |  |  | 
6.4 | 6.2 | 7940 | Cc1c(C(=O)N[C@H]2C[C@H](C(=O)O)C2)cc(-c2cc(C(C)(C)C)cc(C(=O)NC(C)(C)C)c2Cl)n1CC1CCCCC1 [17/368] |  |  | 
8.0 | 8.0 | 631 | Cc1c(S(=O)(=O)NC(C)(C)C)ccc(-c2cc(C(=O)NCC(C)(C)C(N)=O)c(C)n2CC2CCCCC2)c1Cl [17/371] |  |  | 
6.3 | 6.2 | 3160 | Cc1c(C(=O)N[C@H]2C[C@H](C(=O)O)C2)cc(-c2cc(C(=O)NC(C)(C)C)nc(C3(C)CC3)n2)n1CC1CCCCC1 [17/372] |  |  | 
< 4.7 | < 4.7 | 5010 | Cc1c(C(=O)NCC(C)(C)O)cc(-c2cc(C(=O)NC(C)(C)C)nc(C3(C)CC3)n2)n1CC1CCCCC1 [17/373] |  |  | 
6.1 | 6.5 | 1580 | Cc1c(C(=O)NC2CCOCC2)cc(-c2cc3c(c(C(C)(C)C)c2)OCCC3=NO)n1CC1CCCCC1 [18/3] |  |  | 
6.3 | 6.5 | 794 | Cc1c(C(=O)NC2CCOCC2)cc(-c2cc3c(c(C(C)(C)C)c2)OCCC3F)n1CC1CCCCC1 (stereo not drawn) [18/4] |  |  | 
7.0 | 7.2 | 316 | COC(=O)[C@H]1C[C@H](NC(=O)c2cc(-c3cc(C(C)(C)C)cc(C4(C)CC4)c3)n(CC3CCCCC3)c2F)C1 [20/2] |  |  | 
7.3 | 7.4 | 631 | CC(C)(C)c1cc(-c2cc(C(=O)N[C@H]3C[C@H](C(=O)O)C3)c(F)n2CC2CCCCC2)cc(C2(C)CC2)c1 [20/3] |  |  | 
6.9 | 6.9 | 200 | COC(=O)C(C)(C)CCNC(=O)c1cc(-c2cc(C(C)(C)C)cc(C3(C)CC3)c2)n(CC2CCCCC2)c1F [20/4] |  |  | 
7.0 | 7.0 | 794 | CC(C)(CCNC(=O)c1cc(-c2cc(C(C)(C)C)cc(C3(C)CC3)c2)n(CC2CCCCC2)c1F)C(=O)O [20/5] |  |  | 
6.2 | 6.2 | 398 | CC(C)(C)NS(=O)(=O)c1ccc(-c2cc(C(=O)N[C@H]3C[C@H](C(=O)O)C3)c(F)n2CC2CCCCC2)cc1C(F)(F)F [20/7] |  |  | 
7.0 | 7.0 | 1000 | CC(C)(C)NS(=O)(=O)c1ccc(-c2cc(C(=O)N[C@H]3C[C@H](C(=O)O)C3)c(F)n2CC2CCCCC2)c2ccccc12 [20/8] |  |  | 
8.1 | 8.0 | 398 | CC(C)(C)NS(=O)(=O)c1ccc(-c2cc(C(=O)N[C@H]3C[C@H](C(=O)O)C3)c(Cl)n2CC2CCCCC2)c2ccccc12 [22/2] |  |  | 
7.9 | 8.0 | 316 | Cc1c(C(=O)N[C@H]2C[C@H](C(=O)O)C2)cc(-c2ccc(-c3ccnn3C(C)C)c(C(C)(C)C)c2)n1CC1CCCCC1 [26/5] |  |  | 
6.8 | 6.8 | 3160 | Cc1c(C(=O)N[C@H]2C[C@H](C(=O)O)C2)c(Cl)c(-c2cc(C(C)(C)O)cc(C3(C)CC3)c2)n1CC1CCCCC1 [29/1] |  |  | 
7.3 | 7.1 | 2510 | COC(C)(C)c1cc(-c2c(Cl)c(C(=O)N[C@H]3C[C@H](C(=O)O)C3)c(C)n2CC2CCCCC2)cc(C2(C)CC2)c1 [29/2] |  |  | 
7.0 | 7.2 | 501 | CC(=O)N1CC(NC(=O)c2cc(-c3cc(C(C)(C)C)cc(C(C)(C)C)c3)n(CC3CCCCC3)c2C)C1 [Example 5, N-(1-Acetylazetidin-3-yl)-1-(cyclohexylmethyl)-5-(3,5-di-tert-butylphenyl)-2-methyl-1H-pyrrole-3-carboxamide] |  |  | 

Continued, compound first:

SMILES | pIC50 (FF) (RORγ; [2]) | pIC50 (REN) (RORγ; [3]) | IC50 [1, 4] [nM] | pIC50 (FF) (RORγ) | pIC50 (REN) (RORγ) | IC50 [1] [nM]
Cc1c(C(=O)NC2CCOCC2)cc(-c2ccc(S(=O)(=O)NC(C)(C)C)c3cnccc23)n1CC1CCCCC1 [17/369] |  |  |  | 5.9/7.5/7.5 | 5.9/7.5/7.5 | 1260
Cc1c(C(=O)NCC(C)(C)O)cc(-c2ccc(S(=O)(=O)NC(C)(C)C)c3ccccc23)n1CC1CCCC(F)C1 (stereo not drawn) [17/370] | 7.2 | 7.3 | 2000 |  |  | 
Cc1c(C(=O)NCC(C)(C)O)cc(-c2ccc(S(=O)(=O)NC(C)(C)C)c3ccccc23)n1CC1CCC(F)CC1 (stereo not drawn) [17/374] | 7.3 | 7.3 | 1580 |  |  | 
CC(=NO)c1cc(-c2cc(C(=O)NC3CCOCC3)c(C)n2CC2CCCCC2)cc(C(C)(C)C)c1 [18/1] | 7.5 | 7.7 | 794 |  |  | 
Cc1c(C(=O)NC2CCOCC2)cc(-c2ccc(S(=O)(=O)NC(C)(C)CCF)c(C(F)(F)F)c2)n1CC1CCCCC1 [18/2] | 8.0 | 8.2 | 251 |  |  | 
Cc1c(C(=O)NC2CCOCC2)cc(-c2ccc(S(=O)(=O)NC(C)(C)CF)c(C(F)(F)F)c2)n1CC1CCCCC1 [18/5] |  |  |  | 6.2/7.5/7.5 | 6.2/7.5/7.5 | 631
Cc1c(C(=O)NC2CCOCC2)cc(-c2cc(Cl)c(S(N)(=O)=O)c(C(F)(F)F)c2)n1CC1CCCCC1 [19/1] | 6.8 | 6.8 | 501 |  |  | 
CC(C)(C)NS(=O)(=O)c1ccc(-c2cc(C(=O)NC3CCOCC3)c(F)n2CC2CCCCC2)cc1C(F)(F)F [20/1] | 7.1 | 7.3 | 251 |  |  | 
CC(C)(C)NS(=O)(=O)c1ccc(-c2cc(C(=O)NCCC(C)(C)C(=O)O)c(F)n2CC2CCCCC2)cc1C(F)(F)F [20/6] | 6.9 | 6.9 | 501 |  |  | 
CC(C)(C)NS(=O)(=O)c1ccc(-c2cc(C(=O)NCCC(C)(C)C(=O)O)c(F)n2CC2CCCCC2)c2ccccc12 [20/9] | 7.8 | 7.6 | 1260 |  |  | 
CC(C)(C)NS(=O)(=O)c1ccc(-c2cc(C(=O)NC3CCOCC3)c(Cl)n2CC2CCCCC2)c2ccccc12 [22/1] |  |  |  | 6.8/8.4/8.4 | 6.8/8.4/8.4 | 158
Cc1c(C(=O)NC2CCOCC2)cc(C2=NN(S(=O)(=O)c3ccccc3)C3(CCCCC3)C2)n1CC1CCCCC1 [24/1] | 6.3 | 6.4 | 12600 |  |  | 
Cc1c(C(=O)NC2COC2)cc(C2=NN(C(=O)C3CCCCC3)C3(CCCCC3)C2)n1CC1CCCCC1 [24/2] | < 4.7 | < 4.7 | 6310 |  |  | 
Cc1n[nH]cc1-c1ccc(-c2cc(C(=O)NC3CCOCC3)c(C)n2CC2CCCCC2)cc1C(C)(C)C [26/1] |  |  |  | 6.6/7.4/7.5 | 6.6/7.4/7.5 | 251
Cc1c(C(=O)NC2CCOCC2)cc(-c2ccc(-c3cnn(C(C)(C)C)c3)c(C(C)(C)C)c2)n1CC1CCCCC1 [26/2] | 7.2 | 7.2 | 200 |  |  | 
CCn1cc(-c2ccc(-c3cc(C(=O)NC4CCOCC4)c(C)n3CC3CCCCC3)cc2C(C)(C)C)cn1 [26/3] | 6.6 | 6.8 | 794 |  |  | 
Cc1c(C(=O)NC2CCOCC2)cc(-c2ccc(-c3cnc(NC(C)C)nc3)c(C(C)(C)C)c2)n1CC1CCCCC1 [26/4] | 6.6 | 6.8 | 3980 |  |  | 
Cc1c(C(=O)NCCC(C)(C)C(=O)O)cc(-c2ccc(-c3ccnn3C(C)C)c(C(C)(C)C)c2)n1CC1CCCCC1 [26/6] | 7.7 | 7.9 | 398 |  |  | 
Cc1c(C(=O)NC2COC2)cc(-c2cc(C(C)(C)C)cc(C(C)(C)C)c2)n1C(C)C1CCCCC1 (stereo not drawn) [Example 1, 1-(1-Cyclohexylethyl)-5-(3,5-di-tert-butylphenyl)-2-methyl-N-(oxetan-3-yl)-1H-pyrrole-3-carboxamide] | 6.8 | 6.9 | 316 |  |  | 
Cc1c(C(=O)NC2C[S+]([O-])C2)cc(-c2cc(C(C)(C)C)cc(C(C)(C)C)c2)n1CC1CCCCC1 (stereo not drawn) [Example 2, 1-(Cyclohexylmethyl)-5-(3,5-di-tert-butylphenyl)-2-methyl-N-(1-oxidothietan-3-yl)-1H-pyrrole-3-carboxamide] | 7.0 | 7.0 | 251 |  |  | 
Cc1c(C(=O)NC2CS(=O)(=O)C2)cc(-c2cc(C(C)(C)C)cc(C(C)(C)C)c2)n1CC1CCCCC1 [Example 3, 1-(Cyclohexylmethyl)-5-(3,5-di-tert-butylphenyl)-N-(1,1-dioxidothietan-3-yl)-2-methyl-1H-pyrrole-3-carboxamide] |  |  |  | 6.6/7.4/7.4 | 6.6/7.4/7.4 | 251
